# Where two headings read alike, the source gives them in different places.
# Assays:
# L1210S = assay: In vitro cytotoxicity (ID50, 72 h growth inhibition), L1210S; assay type: cell-based, murine
# Description: (§1) ID50 values are the concentration of complex required to inhibit the in vitro growth of treated cells to a level of 50% of that for untreated cells over a 72-hour period. The cell lines are suspended in appropriate media at a concentration which results in the cells remaining in log phase growth throughout the treatment period. Serially diluted drug is added to duplicate wells containing the cell growth. After 72 hours of incubation of the cell lines in 5% CO2, the cells are counted and the ID50 values determined.
# L1210PtR4 = assay: In vitro cytotoxicity (ID50, 72 h growth inhibition), L1210PtR4; assay type: cell-based, murine; conditions: for ID50: in vitro, 72 h
# Description: as §1
# (§2) Resistance ratio values shown in Table 1 were calculated by dividing the ID50 values against the resistant cell lines by the ID50 values against the normal cell lines. The resistance ratio values shown in the table indicate a measure of the degree of resistance of the cell line to a particular drug.
# L1210DDP5 = assay: In vitro cytotoxicity (ID50, 72 h growth inhibition), L1210DDP5; assay type: cell-based, murine; conditions: for ID50: in vitro, 72 h
# Description: as §1, §2
# L1210DACH = assay: In vitro cytotoxicity (ID50, 72 h growth inhibition), L1210DACH (Pt(DACH)Cl2-resistant L1210); assay type: cell-based, murine; conditions: for ID50: in vitro, 72 h
# Description: as §1, §2
# P388S = assay: In vitro cytotoxicity (ID50, 72 h growth inhibition), P388S; assay type: cell-based, murine
# Description: as §1
# P388Pt4 = assay: In vitro cytotoxicity (ID50, 72 h growth inhibition), P388Pt4; assay type: cell-based, murine; conditions: for ID50: in vitro, 72 h
# Description: as §1, §2
# L-1210 Leukemia = assay: In vivo antitumor activity in mice, L-1210 Leukemia; set-up: species or system mice (murine leukemia); conditions: IP, Days 3, 7, 11; for % T/C: best responses
# Text: (§3) The screening tests employing these cell lines are described in Geran et al., "Protocols for Screening Chemical Agents and Natural Products Against Animal Tumors and Other Biological Systems," Cancer Chemotherapy Reports, Part 3, Vol. 3, No. 2, pages 1-85 (1972). The L1210 and P388 screening methods have been cited as the best tools for predicting clinical utility of drugs in the treatment of human solid tumors as well as human leukemias and lymphomas (Venditti, "Relevance of Transplantable Animal-Tumor Systems to the Selection of New Agents for Clinical Trial," Pharmacological Basis of Cancer Chemotherapy, […] Pub. Co. (1975)).
# In Table 2, the ratio of median survival time of laboratory mice which had been treated with the test compound to untreated control animals is expressed as a percentage (%T/C values). […] Data for the prior art complex cisplatin is included for comparison.
# ^a Inoculum: 10,000 cells (IP)
# ^b Schedule: Days 3, 7, 11
# [1] = test system: L-1210/Pt Leukemia (Cisplatin Resistant); assay: In vivo antitumor activity in mice, L-1210/Pt Leukemia (Cisplatin Resistant); set-up: species or system mice (murine leukemia); conditions: IP, Days 3, 7, 11; for % T/C: best responses
# [2] = test system: P-388/Pt (Cisplatin Resistant); assay: In vivo antitumor activity, P-388 (Lymphocytic Leukemia), P-388/Pt (Cisplatin Resistant); set-up: species or system mice (murine leukemia); conditions: IP, Days 1, 5, 9; for % T/C: best responses
# Text: as §3
# ^g Schedule: Days 1, 5, 9
# [3] = test system: L1210 and P388 murine leukemia cell lines; assay: Antitumor activity in L1210 and P388 murine leukemia, in vitro and in vivo; conditions: in vitro and in vivo test results
# Description: as §1, §3
# In Table 2, the ratio of median survival time of laboratory mice which had been treated with the test compound to untreated control animals is expressed as a percentage (%T/C values). […]
# [4] = test system: parent L1210 and P388 leukemia cell lines; assay: In vivo activity against parent L1210 and P388 leukemia; set-up: species or system mice (murine leukemia)
# Text: as §3
# (§4) In Table 2, the ratio of median survival time of laboratory mice which had been treated with the test compound to untreated control animals is expressed as a percentage (%T/C values). Laboratory mice were implanted intraperitonealy with the L1210 murine leukemia cell line on Day 0 and treated with intraperitoneal injections of representative platinum complexes of the present invention on Days 3 and 7 at the dosages indicated. Data for the prior art complex cisplatin is included for comparison.
# [5] = test system: cisplatin-resistant cells; assay: Activity against cisplatin-resistant cells in vitro and in vivo; set-up: species or system murine
# Description: as §1, §2, §4
# [6] = first pair of lines, 5.0 mg/kg/injection
# [7] = second pair of lines, 5.0 mg/kg/injection
# [8] = ID50 resistant line / ID50 normal line, 4320 min
# [9] = first pair of lines, 3.7 mg/kg/injection
# [10] = second pair of lines, 3.7 mg/kg/injection
smiles,measurement,setting,value
"N.N.[Cl][Pt][Cl] [Cisplatin, cis-diaminedichloroplatinum(II), reference compound]",ID50,L1210S,0.375 µg/mL
same,ID50,L1210PtR4,7.84 µg/mL
same,ID50,L1210DDP5,4.11 µg/mL
same,ID50,L1210DACH; L1210DACH,0.52 µg/mL
same,ID50,P388S,0.128 µg/mL
same,ID50,P388Pt4,10.0 µg/mL
same,60 Day Survivors,L-1210 Leukemia; 4.0 mg/kg/injection,1/6
same,Log10 Kill Gross,L-1210 Leukemia; 4.0 mg/kg/injection,9.4
same,Log10 Kill Net,L-1210 Leukemia; 4.0 mg/kg/injection,0.9
same,MLS (median life span),L-1210 Leukemia; 4.0 mg/kg/injection,19.5 days
same,Weight Change,L-1210 Leukemia; 4.0 mg/kg/injection,1.0 grams
same,% T/C,L-1210 Leukemia; 4.0 mg/kg/injection,184%
same,60 Day Survivors,L-1210 Leukemia; 6.0 mg/kg/injection,1/6
same,Log10 Kill Gross,L-1210 Leukemia; 6.0 mg/kg/injection,8.3
same,Log10 Kill Net,L-1210 Leukemia; 6.0 mg/kg/injection,-0.1
same,MLS (median life span),L-1210 Leukemia; 6.0 mg/kg/injection,18.5 days
same,Weight Change,L-1210 Leukemia; 6.0 mg/kg/injection,-1.9 grams
same,% T/C,L-1210 Leukemia; 6.0 mg/kg/injection,175%
same,60 Day Survivors,[1]; 4.0 mg/kg/injection,0/6
same,Log10 Kill Gross,[1]; 4.0 mg/kg/injection,0.7
same,Log10 Kill Net,[1]; 4.0 mg/kg/injection,-2.5
same,MLS (median life span),[1]; 4.0 mg/kg/injection,11.1 days
same,% T/C,[1]; 4.0 mg/kg/injection,109%
same,60 Day Survivors,[1]; 6.0 mg/kg/injection,0/6
same,Log10 Kill Gross,[1]; 6.0 mg/kg/injection,1.5
same,Log10 Kill Net,[1]; 6.0 mg/kg/injection,-2.4
same,MLS (median life span),[1]; 6.0 mg/kg/injection,12.0 days
same,Weight Change,[1]; 6.0 mg/kg/injection,-3.7 grams
same,% T/C,[1]; 6.0 mg/kg/injection,118%
same,Log10 Kill Net,[2]; [6],6.8
same,% T/C,[2]; [6],261%
same,Log10 Kill Net,[2]; [7],-1.5
same,% T/C,[2]; [7],132%
"[Cl][Pt]1([Cl])[NH]C2CCC(CC2)[NH]1 [Example 1, [SP-4-2-(c-is)]-Dichloro(1,4-cyclohexanediamine-N,N')-platinum]",ID50,L1210S,0.248 µg/mL
same,Fold resistance (resistance ratio),L1210PtR4; [8],4.9 fold
same,ID50,L1210PtR4,1.21 µg/mL
same,Fold resistance (resistance ratio),L1210DDP5; [8],2.7 fold
same,ID50,L1210DDP5,0.663 µg/mL
same,cross resistance to Pt(DACH)Cl2-resistant L1210 cells in culture,L1210DACH,four
same,Fold resistance (resistance ratio),"L1210DACH; ID50 resistant line / ID50 normal line, L1210DACH, 4320 min",4.3 fold
same,ID50,L1210DACH; L1210DACH,1.08 µg/mL
same,ID50,P388S,0.047 µg/mL
same,Fold resistance (resistance ratio),P388Pt4; [8],30 fold
same,ID50,P388Pt4,1.43 µg/mL
same,60 Day Survivors,L-1210 Leukemia; 0.8 mg/kg/injection,0/6
same,Log10 Kill Gross,L-1210 Leukemia; 0.8 mg/kg/injection,3.4
same,Log10 Kill Net,L-1210 Leukemia; 0.8 mg/kg/injection,-1.5
same,MLS (median life span),L-1210 Leukemia; 0.8 mg/kg/injection,13.0 days
same,% T/C,L-1210 Leukemia; 0.8 mg/kg/injection,130%
same,60 Day Survivors,L-1210 Leukemia; 1.5 mg/kg/injection,0/6
same,Log10 Kill Gross,L-1210 Leukemia; 1.5 mg/kg/injection,13.1
same,Log10 Kill Net,L-1210 Leukemia; 1.5 mg/kg/injection,4.6
same,MLS (median life span),L-1210 Leukemia; 1.5 mg/kg/injection,23.0 days
same,% T/C,L-1210 Leukemia; 1.5 mg/kg/injection,217%
same,60 Day Survivors,L-1210 Leukemia; 3.0 mg/kg/injection,1/6
same,Log10 Kill Gross,L-1210 Leukemia; 3.0 mg/kg/injection,11.5
same,Log10 Kill Net,L-1210 Leukemia; 3.0 mg/kg/injection,3.1
same,MLS (median life span),L-1210 Leukemia; 3.0 mg/kg/injection,21.5 days
same,% T/C,L-1210 Leukemia; 3.0 mg/kg/injection,203%
same,60 Day Survivors,L-1210 Leukemia; 6.3 mg/kg/injection,0/6
same,Log10 Kill Gross,L-1210 Leukemia; 6.3 mg/kg/injection,0.1
same,Log10 Kill Net,L-1210 Leukemia; 6.3 mg/kg/injection,-1.9
same,MLS (median life span),L-1210 Leukemia; 6.3 mg/kg/injection,10.7 days
same,% T/C,L-1210 Leukemia; 6.3 mg/kg/injection,101%
same,60 Day Survivors,[1]; 0.8 mg/kg/injection,0/6
same,Log10 Kill Gross,[1]; 0.8 mg/kg/injection,2.1
same,Log10 Kill Net,[1]; 0.8 mg/kg/injection,-2.2
same,MLS (median life span),[1]; 0.8 mg/kg/injection,12.8 days
same,% T/C,[1]; 0.8 mg/kg/injection,126%
same,60 Day Survivors,[1]; 1.5 mg/kg/injection,0/6
same,Log10 Kill Gross,[1]; 1.5 mg/kg/injection,4.5
same,Log10 Kill Net,[1]; 1.5 mg/kg/injection,-1.7
same,MLS (median life span),[1]; 1.5 mg/kg/injection,15.7 days
same,% T/C,[1]; 1.5 mg/kg/injection,154%
same,60 Day Survivors,[1]; 3.0 mg/kg/injection,2/6
same,Log10 Kill Gross,[1]; 3.0 mg/kg/injection,5.5
same,Log10 Kill Net,[1]; 3.0 mg/kg/injection,-1.0
same,MLS (median life span),[1]; 3.0 mg/kg/injection,17.0 days
same,% T/C,[1]; 3.0 mg/kg/injection,167%
same,60 Day Survivors,[1]; 6.3 mg/kg/injection,0/6
same,Log10 Kill Gross,[1]; 6.3 mg/kg/injection,0.1
same,Log10 Kill Net,[1]; 6.3 mg/kg/injection,-2.7
same,MLS (median life span),[1]; 6.3 mg/kg/injection,10.3 days
same,% T/C,[1]; 6.3 mg/kg/injection,101%
same,Log10 Kill Net,[2]; [9],5.4
same,% T/C,[2]; [9],234%
same,Log10 Kill Net,[2]; [10],1.9
same,% T/C,[2]; [10],177%
same,"antitumor activity, potency and response vs cisplatin",[3],superior to cisplatin both in potency and response
same,effectiveness against parent L1210 and P388 leukemia in vivo vs cisplatin,[4],equally effective or superior to cisplatin
same,cross resistance to cisplatin,[5],some degree of cross resistance to cisplatin
same,effectiveness against cisplatin-resistant cells vs cisplatin,[5],more effective than cisplatin
"NC1CCCCC1N.[Cl][Pt][Cl] (stereo not drawn) [[Pt(trans-l-DACH)Cl2], [SP-4-2-(1R-trans)]-dichloro(1,2-cyclohexanediamine-N,N')platinum, reference compound]",ID50,L1210S,0.059 µg/mL
same,ID50,L1210PtR4,0.161 µg/mL
same,ID50,L1210DDP5,0.164 µg/mL
same,cross resistance to Pt(DACH)Cl2-resistant L1210 cells in culture,L1210DACH; 4320 min,77 fold
same,ID50,L1210DACH; L1210DACH,4.57 µg/mL
same,ID50,P388S,0.077 µg/mL
same,ID50,P388Pt4,0.83 µg/mL

# From US4999444A, “Novel neutral mixed ligand platinum(II) and platinum(IV) complexes” (Warner-Lambert Co., priority 1989, dated 1991)
